Results on three compounds are retold here after US20040209778A1, “Lactone derivative, and plant growth regulator and rooting agent each containing the same as active ingredient” (priority 2001, published 2004).

In assay [1] the test system is adventitious roots of Bupleurum falcatum L. Kind of assay: Rooting test using Bupleurum falcatum L. (1). Conditions: for Weight of Freeze-dried Roots: day 24, 0.2 g roots planted. It counts as cell-based. As for the experimental part:
In order to evaluate rooting activity, adventitious roots of Bupleurum falcatum L. were employed. The adventitious roots were obtained by growing the roots of aseptic seedlings by use of IBA. The developed roots were cultured at 23° C. in a B5 liquid medium containing 5 mg/L IBA (for 3 weeks) and in the corresponding B5 liquid medium with no IBA (for 6 weeks) in an alternate manner. The inoculation amount of the roots was 5 g/L, the incubation temperature was 23° C., and subculture was performed in the dark under shaking conditions of 100 rpm. In the rooting test, adventitious roots cultured in IBA-free medium were employed. B5 medium (30-mL) was placed in a 100 mL flask, followed by planting of the roots of Bupleurum falcatum L. (0.2 g) under aseptic conditions. The present lactone derivative, prepared in 10,000 ppm, was added to the flask so as to attain the concentration of 4 ppm or 8 ppm. A sample containing a 4 ppm (final concentration) IBA solution and a sample containing a 8 ppm (final concentration) IBA solution were employed as positive controls, and a corresponding IBA-free sample was employed as a control. Respective samples were cultured under shaking at 100 rpm at 23° C. in the dark, and on day 24, the extent of rooting was checked. The roots were freeze-dried and the weight thereof was measured.

Assay [2] has the same test system. Kind of assay: Rooting test using Bupleurum falcatum L. (2). In kind it is cell-based. Conditions: for Number of Lateral Roots: per unit length (2 cm) of planted root, average of 3 measurements. The protocol:
In order to evaluate rooting activity, adventitious roots of Bupleurum falcatum L. were employed. The adventitious roots were obtained by growing the roots of aseptic seedlings by use of IBA. The developed roots were cultured at 23° C. in a B5 liquid medium containing 5 mg/L IBA (for 3 weeks) and in the corresponding B5 liquid medium with no IBA (for 6 weeks) in an alternate manner. The inoculation amount of the roots was 5 g/L, the incubation temperature was 23° C., and subculture was performed in the dark under shaking conditions of 100 rpm.
In the rooting test, adventitious roots cultured in IBA-free medium were employed. B5 medium (30-mL) was placed in a 100 mL flask, followed by planting of the roots of Bupleurum falcatum L. (0.2 g) under aseptic conditions. The present lactone derivative, prepared in 10,000 ppm, was added to the flask so as to attain the concentration of 4 ppm or 8 ppm. A sample containing a 4 ppm (final concentration) IBA solution and a sample containing a 8 ppm (final concentration) IBA solution were employed as positive controls, and a corresponding IBA-free sample was employed as a control. Respective samples were cultured under shaking at 100 rpm at 23° C. in the dark, and on day 24, the extent of rooting was checked. The roots were freeze-dried and the weight thereof was measured.
The general procedure of the above-described rooting test (1) was followed, except that there were employed, as positive controls, samples containing the novel auxin metabolite (Fb) disclosed in Japanese Patent Application Laid-Open (kokai) No. 10-77268, at 4 ppm and 8 ppm (both final concentration).
The number of lateral roots was determined by averaging 3 measurements of the number of the lateral roots appearing per unit length (2 cm) of the planted root.

Regarding `O=C1CCC(c2cc3ccccc3o2)O1` (stereo not drawn) [Compound 1, 5-(1-Benzofuran-2-yl)dihydro-2(3H)-furanone], the entries for the “Weight of Freeze-dried Roots” value in assay [1] (4 ppm final concentration) and in assay [1] (8 ppm final concentration) were 0.37 g and 0.35 g, respectively.
For the compound `O=C1CCC(c2csc3ccccc23)O1` (stereo not drawn) [Compound 2, 5-(1-Benzothiophen-3-yl)dihydro-2(3H)-furanone], the rooting activity entry is recorded as “rooting activity stronger than Fb” in assay [2] (4 ppm and 8 ppm, compared with Fb as positive control); “rooting activity stronger than IBA” in assay [1] (4 ppm and 8 ppm, compared with IBA as positive control). Further, the “Weight of Freeze-dried Roots” value in assay [2] (4 ppm final concentration) was found to be 0.31 g; in assay [2] (8 ppm final concentration) it was 0.45 g; in assay [1] (4 ppm final concentration) it was 0.36 g; in assay [1] (8 ppm final concentration), 0.41 g. The “Number of Lateral Roots” value in assay [2] (4 ppm final concentration) came out at 30.0; in assay [2] (8 ppm final concentration) it was 43.3.
`O=C(O)CCCc1c[nH]c2ccccc12` [IBA, indolebutyric acid, reference compound]: the “Weight of Freeze-dried Roots” value was determined as 0.31 g in assay [1] (4 ppm final concentration) and 0.37 g in assay [1] (8 ppm final concentration).
